Assay results: PMC12101129, “An optimized CYP3A4-activatable fluorogenic sensor for in situ functional imaging and multi-dimensional inhibitor assessment” (Chemical Science, 2025)
Where two headings read alike, the source gives them in different places. Each block holds one compound with its values, some of them ahead of it.

Key:
NCM460 cells = assay: Cell-membrane permeability assay in NCM460 cells; type: in vitro ADME
human P-glycoprotein = target: T1, human P-glycoprotein (Homo sapiens, UniProt P08183); assay: P-gp transporter assay in MDR1-MDCK cells with or without verapamil; type: in vitro ADME; details: for intracellular level in the presence of verapamil: MDR1-MDCK cells, with versus without verapamil
T1 construct: expressed in transfected cells; host or cells: MDR1-MDCK
T1 sequence (P08183 whole entry): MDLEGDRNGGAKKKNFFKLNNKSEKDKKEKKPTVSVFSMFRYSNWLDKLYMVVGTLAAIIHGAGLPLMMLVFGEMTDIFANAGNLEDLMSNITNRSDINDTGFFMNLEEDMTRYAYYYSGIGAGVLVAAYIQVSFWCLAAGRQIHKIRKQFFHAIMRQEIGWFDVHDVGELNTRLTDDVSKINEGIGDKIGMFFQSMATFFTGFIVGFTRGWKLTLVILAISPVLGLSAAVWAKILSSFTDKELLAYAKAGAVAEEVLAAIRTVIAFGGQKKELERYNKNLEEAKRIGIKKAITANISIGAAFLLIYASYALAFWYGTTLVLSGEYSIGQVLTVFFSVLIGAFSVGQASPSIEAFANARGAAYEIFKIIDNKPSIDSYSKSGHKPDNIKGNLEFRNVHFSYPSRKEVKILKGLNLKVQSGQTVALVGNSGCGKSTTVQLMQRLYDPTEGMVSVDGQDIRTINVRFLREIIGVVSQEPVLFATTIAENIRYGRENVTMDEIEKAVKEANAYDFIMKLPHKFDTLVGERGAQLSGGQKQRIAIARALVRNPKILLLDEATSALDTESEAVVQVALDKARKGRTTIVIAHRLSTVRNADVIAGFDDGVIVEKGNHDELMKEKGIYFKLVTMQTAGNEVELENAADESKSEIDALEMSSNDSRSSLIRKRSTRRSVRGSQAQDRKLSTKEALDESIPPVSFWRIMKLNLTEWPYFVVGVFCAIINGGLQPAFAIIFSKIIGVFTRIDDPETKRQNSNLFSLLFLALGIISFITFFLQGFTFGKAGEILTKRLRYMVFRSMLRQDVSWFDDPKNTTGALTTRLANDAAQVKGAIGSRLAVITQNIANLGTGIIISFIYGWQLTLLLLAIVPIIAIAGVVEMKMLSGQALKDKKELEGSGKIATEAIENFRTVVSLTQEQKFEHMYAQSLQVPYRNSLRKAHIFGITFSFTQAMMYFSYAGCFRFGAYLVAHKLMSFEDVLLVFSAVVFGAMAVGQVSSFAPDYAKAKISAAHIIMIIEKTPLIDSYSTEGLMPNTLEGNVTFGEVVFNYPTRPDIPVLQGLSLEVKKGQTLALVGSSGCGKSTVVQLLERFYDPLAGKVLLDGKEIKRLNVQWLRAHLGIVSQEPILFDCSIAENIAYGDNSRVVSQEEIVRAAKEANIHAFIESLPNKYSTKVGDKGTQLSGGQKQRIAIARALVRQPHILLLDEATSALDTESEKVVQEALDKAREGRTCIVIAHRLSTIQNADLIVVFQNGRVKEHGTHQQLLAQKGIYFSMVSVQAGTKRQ
Procedure: 1.10. P-gp transporter assay
To test whether NCN is pumped extracellularly by P-gp, MDR1-MDCK cells (a transfected cell line overexpressing human P-glycoprotein) were seeded in 96-well plates supplemented with DMEM media with 10% FBS. Then, verapamil (a potent P-gp inhibitor, 100 μL) was added to 96-well plates and cultured for 15 min. After that, the cells were treated with NCN/Rhodamine 123 (100 μL) for 2 h. The cells were collected and washed with PBS, and lysed by 200 µL ice-cold acetonitrile. Next, the cell supernatant was collected by centrifugation at 20,000 g, 4 °C for 30 min. The content of NCN in the cells was determined. […]

Hep3B cells [1] = assay: Cell-membrane permeability assay in Hep3B cells; type: in vitro ADME; details: for Cell-membrane penetration: 20 μM, 1 h
Procedure: 1.9. Cell-membrane permeability assay
Hep3B cells were cultured with the DMEM media supplemented with 10% fetal bovine serum (FBS) in a humidified culture chamber at 37 °C with 95% air and 5%
CO2. The cells were trypsinized and resuspended with the DMEM basal medium at a […]
200 μL cell suspension was incubated with NCN (20 μM) at 37 °C for 1 h. Then, the cells were centrifuged (1000 rpm, 3 min), resuspended in DMEM media, and centrifuged again. Next, the cells were lysed with ice-cold methanol (200 μL) and centrifuged (20000 g, 30 min, 4 °C). The content of NCN in the supernatant was determined. […]

CYP3A4 [2] = target: T2, CYP3A4 (Homo sapiens, UniProt P08684); parameters: endogenous in cells; host or cells: Hep3B; details: cited from earlier work; for Km: CYP3A4, previously reported probe
T2 sequence (P08684 whole entry): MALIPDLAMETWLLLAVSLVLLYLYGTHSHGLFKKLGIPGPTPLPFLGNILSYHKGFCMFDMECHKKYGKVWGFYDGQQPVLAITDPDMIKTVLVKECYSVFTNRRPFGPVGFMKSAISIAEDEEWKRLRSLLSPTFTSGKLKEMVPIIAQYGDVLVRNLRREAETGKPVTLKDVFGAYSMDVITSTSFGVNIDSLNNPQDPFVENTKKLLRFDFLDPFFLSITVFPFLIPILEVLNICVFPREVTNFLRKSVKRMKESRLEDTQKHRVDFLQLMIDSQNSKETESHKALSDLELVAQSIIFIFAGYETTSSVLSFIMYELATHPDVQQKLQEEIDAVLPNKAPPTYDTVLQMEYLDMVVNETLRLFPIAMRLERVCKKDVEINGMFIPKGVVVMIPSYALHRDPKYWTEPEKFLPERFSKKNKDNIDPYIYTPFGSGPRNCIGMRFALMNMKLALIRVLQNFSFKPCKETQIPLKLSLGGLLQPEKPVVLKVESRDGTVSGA

CYP3A4 [3] = target: T2, CYP3A4; assay: Fluorescence response of NCN to CYP3A4 (NCN 4-hydroxylation); type: biochemical; parameters: purchased Cypex
[4] = tested on: human liver microsomes (HLMs); assay: Oxidative metabolism of candidate substrates in HLMs (fluorescent product formation); details: for fluorescence activation following oxidative metabolism: 30 min
[5] = In vivo inhibitory effect of ketoconazole on NCN pharmacokinetics; details: rats; for AUC(0-inf) / Cmax / half-life: rat, plasma, po, 20 mg/kg, NCN 20 mg/kg i.g.
Procedure: Twelve rats were randomly divided into two groups (CMC-Na + NCN group, […]
ketoconazole + NCN group).
50 mg/kg, respectively. Firstly, blank blood samples were collected. Then, ketoconazole or CMC-Na (control group) was administered orally. After 30 min, NCN was administered orally and blood samples were collected at the following time points […]
5-fold volume of acetonitrile.
1.21. Statistical analysis
All data are expressed as the mean ± standard deviation. The Km, Vmax, and IC50 values were determined via non-linear regression analysis using GraphPad Prism software. All statistical analyses were carried out using GraphPad Prism software (GraphPad Prism 8.0), and Origin (2025).

[6] = Bio-safety (tolerability) assessment of NCN in healthy mice; type: in vivo
Procedure: 1.15. Bio-safety assessment of NCN in healthy mice
Sixteen C57BL/6J mice (8 males and 8 females, 6 weeks) were randomly assigned into two groups (4 males and 4 females). All mice were subjected to adaptive feeding for 7 d before the experiment. NCN was dissolved in 0.5% CMC-Na, and mice were orally administered NCN (100 mg/kg)/0.5% CMC-Na continuously for 14 d. The mice were weighed every day, and their status was observed. After 14 d, blood and tissues from all mice were obtained for bio-safety assessment. Serum ALT, AST, TP, UREA, CREA, TG, Na+, and K+ levels were tested by using a fully automated serum biochemistry analysis (Thermo, USA). Mice organs were weighed and the organ index was calculated, and hematoxylin and eosin (H&E) stains were provided by Shanghai Ruibaohe Biotechnology Co., Ltd. […]

[7] = tested on: human liver microsomes (HLMs)
[8] = tested on: human recombinant cytochrome P450 enzymes; assay: P450 reaction phenotyping assay; type: biochemical; details: NCN, panel of human P450 enzymes including CYP3A5
Procedure: (§1) 1.6. P450 reaction phenotyping and chemical inhibition assays
(§2) P450 reaction phenotyping analysis of NCN was determined using a panel of human recombinant cytochrome P450 enzymes, while the inhibitory effects of CYP specific inhibitors on NCN 4-hydroxylation in HLMs were assessed. The final concentration of each human recombinant CYP enzyme in the incubation system was 5 nM. Briefly, each sample was co-incubated with NCN at 37 °C for 30 min, the formation rate of HNCN was determined to assess the metabolic specificity of NCN.
(§3) Gaussian program conducted a GMMX conformational analysis using a DFT/B3LYP/6-31G(d) pre-optimized 3D geometry. The resulting GMMX conformers were optimized at B3LYP/6-31G(d) level. Moreover, all conformers were real minima, as no imaginary vibrational frequencies were found. The energy ranking was performed to find the minimum energy conformer. The minima conformer was optimized at B3LYP /6-311G(d,p) level. The molecular orbital energy levels and electrostatic potential (ESP) were calculated at the DFT/B3LYP/6-311G(d,p) level.
(§4) Frontier orbital and ESP were depicted by Multiwfn (Lu and Chen 2011) and VMD […]
(§5) 1.8. Enzyme kinetic analysis
(§6) The kinetic parameters of NCN 4-hydroxylation in HLMs were determined by performing a set of hydroxylation kinetic assays. Kinetic parameters (K m and Vmax) for NCN 4-hydroxylation were fitted by the following equation (a): […]

Hep3B cells [9] = assay: CCK-8 cytotoxicity assay; type: cell-based
[10] = target: T3, human liver microsomes (HLMs) (Homo sapiens, UniProt P08684); assay: Enzyme kinetic analysis of NCN 4-hydroxylation in HLMs; type: biochemical; details: Vmax/Km, enzyme source HLMs
T3 construct: tissue Bioreclamation IVT lot No. X008067; host or cells: pooled human liver microsomes from 50 donors
T3 sequence (P08684 whole entry): as above
Procedure: as §1, §2, §3, §4, §5, §6

[11] = Oral bioavailability of NCN (pharmacokinetics); type: in vivo, SD rats; details: Sprague-Dawley, rat, plasma, rats; for AUC(0-inf) / Cmax / Tmax / half-life: n = 5
Procedure: precipitate the protein. After centrifugation again, the supernatant was determined to
quantify the levels of HNCN.
1.17. Oral bioavailability of NCN
intravenous injection NCN group).
h, and 24 h, respectively.
8 h, 12 h, and 24 h, respectively. […]

[12] = target: T4, NCN 4-hydroxylation in HLMs (Homo sapiens, UniProt P08684); assay: Chemical inhibition assays of NCN 4-hydroxylation in HLMs; type: biochemical
T4 construct: tissue Bioreclamation IVT lot No. X008067; host or cells: pooled human liver microsomes from 50 donors
T4 sequence (P08684 whole entry): as above

[13] = Effect of pH on fluorescence response of HNCN; type: physicochemical
[14] = Phase II metabolic stability in HLMs; type: in vitro ADME; details: human, liver microsomes, read-out: phase II metabolic stability t1/2
[15] = KCZ 50 mg kg^−1 versus control, after oral NCN

Compound: O=C1c2cccc3cccc(c23)C(=O)N1CC1CC1 [Probe 5, N-cyclopropylmethyl-1,8-naphthalimide]
Detection limit (CYP3A4 [3]; CYP3A4 concentration, NCN as substrate): 0.03 nM
fluorescence enhancement (CYP3A4 [3]; NCN 10 μM with CYP3A4 2 nM and NADPH, 30 min, around 555 nm): 125 fold
fluorescence activation following oxidative metabolism [4]: noticeable fluorescence activation
AUC(0-inf) ([5]; control group (CMC-Na)): 1520 ng·h/mL
Cmax ([5]; control group (CMC-Na)): 207 ng/mL
half-life ([5]; control group (CMC-Na)): 1.47 h
AUC(0-inf) ([5]; with KCZ 50 mg kg^−1 i.g.): 5840 ng·h/mL
Cmax ([5]; with KCZ 50 mg kg^−1 i.g.): 674 ng/mL
half-life ([5]; with KCZ 50 mg kg^−1 i.g.): 2.3 h
increase of AUC0-inf by KCZ ([5]; KCZ 50 mg kg^−1 versus control): 3.85 fold
increase of Cmax by KCZ ([5]; KCZ 50 mg kg^−1 versus control): 3.26 fold
toxicity, mortality, morbidity signs ([6]; oral 100 mg kg^−1, 14 consecutive days): no toxicity, mortality, or morbidity signs were observed
histopathological examination of vital organs ([6]; oral 100 mg kg^−1, 14 days): no evidence of lesions or inflammation
serum liver, kidney function and other indicators ([6]; oral 100 mg kg^−1, 14 days): within normal ranges
visceral organ appearance ([6]; oral 100 mg kg^−1, 14 days): normal in color, size, and shape
Cell-membrane penetration (NCM460 cells): 23.76%
enhancement in cell-membrane permeability compared to NEN (NCM460 cells): 23.9 fold
intracellular level in the presence of verapamil (human P-glycoprotein): unchanged
P-gp substrate (human P-glycoprotein; listed as NCN): No and non-substrates of P-gp
metabolites generated [7]: a single oxidative metabolite
enhancement in cell-membrane permeability compared to NEN (Hep3B cells [1]): 13.7 fold
Cell-membrane penetration (Hep3B cells [1]): 31.45%
isozyme specificity [8]: only CYP3A4 could effectively trigger discernible fluorescence enhancement
cytotoxicity (Hep3B cells [9]): minimal cytotoxicity
microsomal CLint [10]: 255 µL/min/mg
AUC(0-inf) ([11]; iv, i.v. 2 mg/kg): 858 ± 120 ng·h/mL
Cmax ([11]; iv, i.v. 2 mg/kg): 1860 ± 477 ng/mL
Tmax ([11]; iv, i.v. 2 mg/kg): 0.083 h
half-life ([11]; iv, i.v. 2 mg/kg): 2.59 ± 0.33 h
bioavailability ([11]; po, 20 mg/kg i.g. versus 2 mg/kg i.v.): 12.9%
AUC(0-inf) ([11]; po, i.g. 20 mg/kg): 1110 ± 208 ng·h/mL
Cmax ([11]; po, i.g. 20 mg/kg): 275 ± 65 ng/mL
Tmax ([11]; po, i.g. 20 mg/kg): 2 ± 0.71 h
half-life ([11]; po, i.g. 20 mg/kg): 1.79 ± 0.41 h

Compound: CC(C)c1nc(CN(C)C(=O)N[C@H](C(=O)N[C@@H](Cc2ccccc2)C[C@H](O)[C@H](Cc2ccccc2)NC(=O)OCc2cncs2)C(C)C)cs1 [ritonavir, reference compound]
cytotoxicity (Hep3B cells [9]): minimal cytotoxicity

Compound: O=C1c2cccc3cccc(c23)C(=O)N1CC1CCC1 [Probe 6]
fluorescence activation following oxidative metabolism [4]: noticeable fluorescence activation
metabolites generated [7]: multiple metabolites

Compound: O=C1c2cccc3cccc(c23)C(=O)N1Cc1ccc(F)cc1 [Probe F8, N-(4-fluorobenzyl)-1,8-naphthalimide, reference compound]
Cell-membrane penetration (NCM460 cells): 2.09%
P-gp substrate (human P-glycoprotein): Yes
intracellular level in the presence of verapamil (human P-glycoprotein): significantly enhanced
Cell-membrane penetration (Hep3B cells [1]): 4.82%
Km (CYP3A4 [2]; ref He et al. 2023): 0.36 µM
Detection limit (CYP3A4 [2]; previously reported probe, ref He et al. 2023): 0.1 nM

Compound: O=C1c2cccc3cccc(c23)C(=O)N1Cc1ccco1 [Probe 15]
metabolites generated [4]: multiple metabolites
fluorescence activation following oxidative metabolism [4]: noticeable fluorescence activation

Now from value to compound, other results behind:

Cell-membrane penetration (NCM460 cells): 0.99%
P-gp substrate (human P-glycoprotein): Yes
intracellular level in the presence of verapamil (human P-glycoprotein): significantly enhanced
Cell-membrane penetration (Hep3B cells [1]): 2.29%
Compound: CCN1C(=O)c2cccc3cccc(c23)C1=O [NEN, N-ethyl-1,8-naphthalimide, reference compound]
Km (CYP3A4 [2]; ref Ning et al. 2019): 59.8 µM
Vmax (CYP3A4 [2]; previously reported probe, ref Ning et al. 2019): 2.18 nmol/min/nmol

inhibition of NCN 4-hydroxylation [12]: completely blocking
Compound: Cc1ccc(-c2c(-c3nn(C)c4ncnc(N5CC[C@H](N6CCCCC6)C5)c34)cnn2C)cc1 [CYP3cide]

AUC(0-inf) ([5]; control group (CMC-Na)): 961 ng·h/mL
Cmax ([5]; control group (CMC-Na)): 101 ng/mL
half-life ([5]; control group (CMC-Na)): 1.77 h
AUC(0-inf) ([5]; with KCZ 50 mg kg^−1 i.g.): 245 ng·h/mL
Cmax ([5]; with KCZ 50 mg kg^−1 i.g.): 32 ng/mL
half-life ([5]; with KCZ 50 mg kg^−1 i.g.): 2.88 h
decrease of Cmax by KCZ [5, 15]: 3.16 fold
reduction of AUC(0-inf) by KCZ [5, 15]: 3.92 fold
P-gp substrate (human P-glycoprotein): non-substrates of P-gp
intracellular level in the presence of verapamil (human P-glycoprotein): unchanged
pH range of stable fluorescence signals [13]: 7.0–11.0
half-life [14]: 1.36 h
Compound: O=C1c2cccc3c(O)ccc(c23)C(=O)N1CC1CC1 [HNCN, N-cyclopropylmethyl-4-hydroxy-1,8-naphthalimide]
cytotoxicity (Hep3B cells [9]): minimal cytotoxicity

inhibition of NCN 4-hydroxylation [12]: completely blocking
Compound: Nn1nnc2ccccc21 [ABT, 1-aminobenzotriazole]

half-life [14]: 0.287 h
Compound: O=c1ccc2ccc(O)cc2o1 [7-hydroxycoumarin, reference compound]
